Settings: Liquid, Closed cell (Static) method

CCCO [propan-1-ol]
Settings	vapor or sublimation pressure [kPa]
334.53 K	21.9
342.07 K	31.2
349.12 K	42.9
353.96 K	52.7
357.95 K	62.4
361.25 K	71.4
364.3 K	80.7
367.51 K	91.6
370.44 K	102.7

CCO [ethanol]
Settings	vapor or sublimation pressure [kPa]
317 K	21.9
325.12 K	32.5
330.28 K	41.3
335.45 K	52
339.58 K	62.3
342.32 K	70
345.79 K	80.9
348.45 K	90.2
351.31 K	101.4

CCCOC(C)=O [propyl ethanoate]
Settings	vapor or sublimation pressure [kPa]
331.7 K	22.2
340.16 K	31.1
348.06 K	41.8
353.27 K	50.4
359.55 K	62.7
363.29 K	71
367.42 K	81.4
371.07 K	91.5
374.29 K	101.4
